Key:
Format in all cases: in vivo
[1] = tested on: corn hybrid B73 X Mo17; test: Greenhouse study Long Grove, Ill., sprayed at V1-V2, change in height and synergy (Example 7); details: for Change in height from day of treatment, 2 days post treatment: control 9.74; for Change in height from day of treatment, 4 days post treatment: control 22.59; for Change in height from day of treatment, 6 days post treatment: control 43.03; for Height of the corn compared to the control (in words): applied alone
Procedure: A greenhouse study was conducted at Long Grove, Ill. Seeds of the corn hybrid B73 X Mo17 was sown into potted soil on May 7, 2014. Plants were sprayed at 11 days post sowing (V1-V2) with solutions containing a non-ionic surfactant (0.25%, v/v) and growth was followed for 6 days. GA3 refers to gibberellic acid and ABA refers to abscisic acid. Results of the study described in 3. above can be seen in the following tables describing change in height in centimeters from day of treatment (Table 8) and change in height in centimeters from day of treatment compared to control (Table 9).
Synergy is calculated as follows: […]
Observed difference in height from control/Expected difference in height from control, where expected difference in height from control is the sum of the observed difference in height of each active ingredient applied alone. If the ratio between the experimentally observed efficacy of the mixture and the expected efficacy of the mixture is greater than 1, than synergistic interactions are present in the mixture.

[2] = tested on: Hybrid corn; test: Final yield, field, Chabás, Santa Fe, Argentina (Example 1); details: untreated 8096
[3] = tested on: Hybrid corn; test: Corn trial under conventional tillage, Lozada, Argentina, sprayed at V3, yield at harvest (Example 3); details: for Yield difference from control treatment: difference of the Yield (kg/ha) column; for Yield: untreated 3840
Source text: In a corn trial under conventional tillage in Lozada, Argentina, hybrid corn was planted and sprayed at 16 days post-planting at the V3 growth stage.

[4] = tested on: Hybrid 1, Hybrid 2 and Hybrid 3 corn; test: Long Grove, Ill., sprayed at V4, distance of growing point relative to soil surface (Examples 6 and 10); details: for Distance of the growing point relative to the soil surface, 7 days post treatment / Distance of the growing point relative to the soil surface, 13 days post treatment / Distance of the growing point relative to the soil surface, 20 days post treatment / Distance of the growing point relative to the soil surface, 4 days post treatment: Table 7; for Distance of growing point relative to soil surface, 7 days post treatment / Distance of growing point relative to soil surface, 13 days post treatment / Distance of growing point relative to soil surface, 20 days post treatment / Distance of growing point relative to soil surface, 4 days post treatment: Table 12
Procedure: In this example, seeds of three varieties were sown at Long Grove, Ill. and were grown under similar conditions as in Examples 3 to 6. Three hybrid corn varieties were grown, Hybrid 1 and 2 as above, and Hybrid 3 which was another central corn belt variety requiring 111 days to maturity.
At the early V-stages, the growing point of the corn stem is below the soil surface and emerges from the soil when the plants are at V5 or later, depending on the variety. In spring, the soil is generally cooler than the air temperature. Therefore, there would be an advantage to getting the growing point above the soil surface to facilitate faster growth.
The plants were sprayed at the V4 growth stage. Plants were dug from the ground at days after spray. Stems of five plants per replicate, three replicates per treatment were split and the distance of the growing point relative to the soil surface was determined in mm.
Seeds of three varieties were sown at Long Grove, Ill. and were grown under similar conditions as in Example 8, above. Three hybrid corn varieties were grown, Hybrid 1 and 2 as described in Examples 8 and 9, above, and Hybrid 3 which was another central corn belt variety requiring 111 days to maturity. The plants were sprayed at the V4 growth stage. Plants were dug from the ground at days after spray. Stems of five plants per replicate, three replicates per treatment were split and the distance of the growing point relative to the soil surface was determined in mm. Results of this study are found in Table 12, below, describing distance of growing point relative to soil surface in millimeters.

[5] = tested on: Hybrid corn; test: Vigor rating after foliar treatment at V2, field, Chabás, Santa Fe, Argentina (Example 1); details: 1 to 9 scale (untreated=5.0)
Procedure: Hybrid corn was grown under conventional tillage in Chabás, Santa Fe, Argentina. At V2 growth stage, GA3 or a combination of GA3 and ABA was applied as a foliar treatment. Vigor was rated on a 1 to 9 scale (untreated=5.0) following spray applications at the times specified in Table 1.

[6] = tested on: Hybrid 1 and Hybrid 2 corn; test: Field study Woodstock, Ill., sprayed at V2, shoot height (Examples 4 and 8); details: for Growth response to spray treatment (in words): sprayed at V2
Procedure: (§1) A field study was conducted at Woodstock, Ill. Seeds of two commercial varieties were sown: Hybrid 1 was northern corn belt variety with 100 days to maturity, while Hybrid 2 was a central corn belt variety with 111 days to maturity. Corn of these two varieties was sown into cool soil on May 7, 2014. Plants were sprayed at V2 with solutions containing a non-ionic surfactant (0.25%, v/v) at 15 gallons of spray solution/acre and growth was followed for 14 days. At seven days and 14 days after treatment shoot heights in centimeters were measured for 60 plants in each replicate.
as §1, with “GA3 refers to gibberellic acid” for “At seven days”, “ABA refers to abscisic acid. Results of the study are found in Table 10 below describing” for “14 days after treatment”, “height” for “heights”, “centimeters.” for “centimeters were measured for 60 plants in each replicate.”

[7] = tested on: Hybrid 1 and Hybrid 2 corn; test: Field study, sprayed at V4, plant height (Examples 5 and 9)
Procedure: This study was conducted and the data analyzed as described above in Example 3 with the following the exceptions. The plants were sprayed at the V4 stage and plant height was measured at seven and 13 days post treatment.
Another study was conducted and the data analyzed as described Example 8, above, with the following the exceptions. The plants were sprayed at the V4 stage and plant height was measured at seven and 13 days post treatment. Results of this study are found in Table 11, below, describing shoot height in centimeters.

[8] = GA3 120 ppm, mixtures plus ABA 12 (10:1), 10 (12:1) or 8.6 ppm (14:1)
[9] = GA3 16 g/ha, mixtures plus ABA as labelled

SMILES: CC1=CC(=O)CC(C)(C)[C@@]1(O)/C=C/C(C)=C\C(=O)O [ABA, abscisic acid]
- Observed change in height from day of treatment compared to control, 2 days post treatment ([1]; ABA 8.6 ppm alone): −0.17 cm
- Observed change in height from day of treatment compared to control, 4 days post treatment ([1]; ABA 8.6 ppm alone): −0.72 cm
- Observed change in height from day of treatment compared to control, 6 days post treatment ([1]; ABA 8.6 ppm alone): −1.37 cm
- Change in height from day of treatment, 2 days post treatment ([1]; ABA 8.6 ppm alone): 9.57 cm
- Change in height from day of treatment, 4 days post treatment ([1]; ABA 8.6 ppm alone): 21.87 cm
- Change in height from day of treatment, 6 days post treatment ([1]; ABA 8.6 ppm alone): 41.66 cm
- Observed change in height from day of treatment compared to control, 2 days post treatment ([1]; ABA 10 ppm alone): −0.11 cm
- Observed change in height from day of treatment compared to control, 4 days post treatment ([1]; ABA 10 ppm alone): −0.15 cm
- Observed change in height from day of treatment compared to control, 6 days post treatment ([1]; ABA 10 ppm alone): −0.33 cm
- Change in height from day of treatment, 2 days post treatment ([1]; ABA 10 ppm alone): 9.63 cm
- Change in height from day of treatment, 4 days post treatment ([1]; ABA 10 ppm alone): 22.44 cm
- Change in height from day of treatment, 6 days post treatment ([1]; ABA 10 ppm alone): 42.70 cm
- Observed change in height from day of treatment compared to control, 2 days post treatment ([1]; ABA 12 ppm alone): 0.75 cm
- Observed change in height from day of treatment compared to control, 4 days post treatment ([1]; ABA 12 ppm alone): −0.49 cm
- Observed change in height from day of treatment compared to control, 6 days post treatment ([1]; ABA 12 ppm alone): 0 cm
- Change in height from day of treatment, 2 days post treatment ([1]; ABA 12 ppm alone): 10.49 cm
- Change in height from day of treatment, 4 days post treatment ([1]; ABA 12 ppm alone): 22.10 cm
- Change in height from day of treatment, 6 days post treatment ([1]; ABA 12 ppm alone): 43.03 cm
- Height of the corn compared to the control (in words) ([1]; at both 4 and 6 days post treatment): either did not increase or decreased the height

SMILES: C=C1C[C@]23C[C@@]1(O)CC[C@H]2[C@@]12C=C[C@H](O)[C@@](C)(C(=O)O1)[C@H]2[C@@H]3C(=O)O [GA3, gibberellic acid]
- Observed change in height from day of treatment compared to control, 2 days post treatment [1, 8]: 3.13 cm
- Observed change in height from day of treatment compared to control, 4 days post treatment [1, 8]: 4.97 cm
- Observed change in height from day of treatment compared to control, 6 days post treatment [1, 8]: 7.21 cm
- Change in height from day of treatment, 2 days post treatment [1, 8]: 12.87 cm
- Change in height from day of treatment, 4 days post treatment [1, 8]: 27.56 cm
- Change in height from day of treatment, 6 days post treatment [1, 8]: 50.24 cm
- Height of the corn compared to the control (in words) ([1]; Tables 8 and 9): increased the height
- Yield ([2]; GA3 8 g/ha): 8355 kg/ha
- Yield [2, 9]: 8769 kg/ha
- Yield difference from control treatment ([3]; GA3 8 g/ha): 370
- Yield ([3]; GA3 8 g/ha): 4210 kg/ha
- Yield difference from control treatment [3, 9]: 345
- Yield [3, 9]: 4185 kg/ha
- Distance of the growing point relative to the soil surface, 7 days post treatment ([4]; Hybrid 1, control 0:0 17.47): 34.53 mm
- Distance of the growing point relative to the soil surface, 13 days post treatment ([4]; Hybrid 1, control 0:0 166.40): 163.27 mm
- Distance of the growing point relative to the soil surface, 20 days post treatment ([4]; Hybrid 1, control 0:0 644.00): 603.80 mm
- Distance of the growing point relative to the soil surface, 4 days post treatment ([4]; Hybrid 1, control 0:0 −1.13): 4.20 mm
- Distance of growing point relative to soil surface, 7 days post treatment ([4]; Hybrid 1, control 0:0 17.47): 34.53 mm
- Distance of growing point relative to soil surface, 13 days post treatment ([4]; Hybrid 1, control 0:0 166.40): 163.27 mm
- Distance of growing point relative to soil surface, 20 days post treatment ([4]; Hybrid 1, control 0:0 644.00): 603.80 mm
- Distance of growing point relative to soil surface, 4 days post treatment ([4]; Hybrid 1, control 0:0 −1.13): 4.20 mm
- Distance of the growing point relative to the soil surface, 4 days post treatment ([4]; Hybrid 2, control 0:0 0.80): 1.87 mm
- Distance of the growing point relative to the soil surface, 7 days post treatment ([4]; Hybrid 2, control 0:0 18.80): 24.07 mm
- Distance of the growing point relative to the soil surface, 13 days post treatment ([4]; Hybrid 2, control 0:0 128.87): 130.93 mm
- Distance of the growing point relative to the soil surface, 20 days post treatment ([4]; Hybrid 2, control 0:0 517.13): 515.53 mm
- Distance of growing point relative to soil surface, 4 days post treatment ([4]; Hybrid 2, control 0:0 0.80): 1.87 mm
- Distance of growing point relative to soil surface, 7 days post treatment ([4]; Hybrid 2, control 0:0 18.80): 24.07 mm
- Distance of growing point relative to soil surface, 13 days post treatment ([4]; Hybrid 2, control 0:0 128.87): 130.93 mm
- Distance of growing point relative to soil surface, 20 days post treatment ([4]; Hybrid 2, control 0:0 517.13): 515.53 mm
- Distance of the growing point relative to the soil surface, 4 days post treatment ([4]; Hybrid 3, control 0:0 0.53): 3.67 mm
- Distance of the growing point relative to the soil surface, 7 days post treatment ([4]; Hybrid 3, control 0:0 25.60): 27.87 mm
- Distance of the growing point relative to the soil surface, 13 days post treatment ([4]; Hybrid 3, control 0:0 147.73): 164.67 mm
- Distance of the growing point relative to the soil surface, 20 days post treatment ([4]; Hybrid 3, control 0:0 619.33): 653.53 mm
- Distance of growing point relative to soil surface, 4 days post treatment ([4]; Hybrid 3, control 0:0 0.53): 3.67 mm
- Distance of growing point relative to soil surface, 7 days post treatment ([4]; Hybrid 3, control 0:0 25.60): 27.87 mm
- Distance of growing point relative to soil surface, 13 days post treatment ([4]; Hybrid 3, control 0:0 147.73): 164.67 mm
- Distance of growing point relative to soil surface, 20 days post treatment ([4]; Hybrid 3, control 0:0 619.33): 653.53 mm
- Vigor 3 d post-spraying ([5]; GA3 8 g/ha): 5.2
- Vigor 7 d post-spraying ([5]; GA3 8 g/ha): 5.3
- Vigor 15 d post-spraying ([5]; GA3 8 g/ha): 5.5
- Vigor 3 d post-spraying [5, 9]: 5.5
- Vigor 7 d post-spraying [5, 9]: 5.6
- Vigor 15 d post-spraying [5, 9]: 6.0
- Shoot height, 7 days post treatment ([6]; Hybrid 1, Table 5, control 0:0 37.75): 36.07 cm
- Shoot height, 14 days post treatment ([6]; Hybrid 1, Table 5, control 0:0 57.90): 57.08 cm
- Shoot height, 7 days post treatment ([6]; Hybrid 1, Table 10, control 0:0 37.75): 36.07 cm
- Shoot height, 14 days post treatment ([6]; Hybrid 1, Table 10, control 0:0 57.90): 57.08 cm
- Growth response to spray treatment (in words) ([6]; Hybrid 1): did not respond
- Shoot height, 7 days post treatment ([6]; Hybrid 2, Table 5, control 0:0 29.56): 31.33 cm
- Shoot height, 14 days post treatment ([6]; Hybrid 2, Table 5, control 0:0 50.16): 51.20 cm
- Shoot height, 7 days post treatment ([6]; Hybrid 2, Table 10, control 0:0 29.56): 31.33 cm
- Shoot height, 14 days post treatment ([6]; Hybrid 2, Table 10, control 0:0 50.16): 51.20 cm
- Growth response to spray treatment (in words) ([6]; Hybrid 2): growth increased
- Plant height, 7 days post treatment ([7]; Hybrid 1, Table 6, control 0:0 76.50): 78.60 cm
- Plant height, 13 days post treatment ([7]; Hybrid 1, Table 6, control 0:0 117.61): 116.44 cm
- Shoot height, 7 days post treatment ([7]; Hybrid 1, Table 11, control 0:0 76.50): 78.60 cm
- Shoot height, 13 days post treatment ([7]; Hybrid 1, Table 11, control 0:0 117.61): 116.44 cm
- Plant height, 7 days post treatment ([7]; Hybrid 2, Table 6, control 0:0 63.76): 68.25 cm
- Plant height, 13 days post treatment ([7]; Hybrid 2, Table 6, control 0:0 98.71): 102.40 cm
- Shoot height, 7 days post treatment ([7]; Hybrid 2, Table 11, control 0:0 63.76): 68.25 cm
- Shoot height, 13 days post treatment ([7]; Hybrid 2, Table 11, control 0:0 98.71): 102.40 cm
